Data from patent US20250114335A1, “METHODS AND COMPOSITIONS FOR THE TREATMENT OF EPILEPSY” (ARIZONA BOARD OF REGENTS ON BEHALF OF THE UNIVERSITY OF …, priority 2022, published 2025).
Where “and” joins values, the source holds several entries; their conditions need not be identical. Equal entries are not always repeated.

Legend:
[1] = tested on: B6-D/+ (Scn8a-N1768D) adult mice; conditions: CBD-treated B6-D/+ males, comparison; cited from earlier work
[2] = tested on: B6-D/D (Scn8a-N1768D) juvenile mice; conditions: CBD-treated B6-D/D males, comparison; cited from earlier work
[3] = tested on: C3H-D/D (Scn8a-N1768D) adult mice; experiment: Survival and seizure frequency, adult C3H-D/D mice followed until death; format: in vivo, mouse; conditions: for #Days survived postTC / #TCs / #TCs/day (PostTC) / #gaps (av) / Age at Death / Age at Onset / gap days / mean gap length: Treated; for observed standard effect size, Kaplan-Meier survival: treated versus untreated
From the text: (§1) Mouse strains: The C57BL/6J-N1768D congenic mouse (B6-D/+) was used for phenotyping, RNAseq, and BBB studies. In addition, a hybrid strain that was produced by backcross breeding to transfer the Scn8a-N1768D allele from the B6 to the C3H/HeJ strain background was used to further assess the effect of CND on survival and seizure frequency. After constructing an F1 by crossing male B6-D/+ heterozygotes to female C3H/HeJ, five rounds of backcrossing (N6) produced a […] and 98.5% C3H/HeJ-N1768D line (C3H-D/+). Sister-brother mating maintained the 98.5% C3H background. […] C3H-D/D mice have a delayed seizure onset (˜40-45 days) and an extended survival (65-70 days) with intermittent bouts of TCs (FIG. 1A).
(§2) Phenotyping: Female and male mice on both the B6 and C3H backgrounds were housed in sex-specific groups of 3-4 per cage in a pathogen-free mouse facility with a 14 h light/10 h dark cycle (lights turned on at 5 am). A 24/7 video monitoring system was utilized to collect seizure data, with infrared illumination to monitor behavior during the dark period. Seizures were counted as individual TCs. Adult mice were followed from the age of 6 weeks, a period of time well before seizure onset, in order to identify the day of seizure onset. A seizure bout was defined as a cluster of seizures on consecutive days, and a gap as a seizure-free period of 3 days or more.
(§3) Preparation of CND suspension for injections and oral dosing: Juvenile B6-D/D and adult B6-D/+ mice were given subcutaneous (s.c.) injections with either CND (2-4 mg/kg/day; doses that fall within the FDA-approved range for CND in both adults and children) or vehicle (VEH) (Sigma-Aldrich) (FIG. 1B). Oral dosing of adults was performed by thoroughly mixing 160 μl of suspension containing 1.28 mg of CND or VEH with 5 g of pure (organic) peanut butter in a petri dish. Mice were given 1 g pellet per mouse each day. Pellets were weighed each day to record the amount consumed, and 24/7 video was used to verify that each mouse was consuming the pellet. An average of 0.79 g (±0.36 g) was consumed by an adult mouse (˜20-25 g), corresponding to 9.1±4.2 mg/kg/day. No correlations were found for the amount of CND consumed and lifetime survival or number of TCs.
Data for the untreated mice were previously reported. Table 1 also provides C3H-D/D summary statistics for female untreated (N=15) and treated (N=15) and male untreated (N=27) and treated (N=16) monitored until the time of death.

[4] = tested on: hippocampal gene expression; experiment: RNAseq and pathway analysis of hippocampal tissue, B6-D/+ adult males; format: in vivo, mouse
Protocol: (§4) Transcriptome studies: B6-D/D and wild-type (+/+) (n=3) were administered CND or VEH by s.c. injection for a period of 5 days starting at P15 and sacrificed for removal of hippocampal tissue (n=12) (FIG. 1B). Adult B6-D/+ male (n=3) mice were administered CND or VEH pellets as described above at the time of seizure onset and monitored for seizures for an extended period before sacrifice and removal of hippocampal tissue (100-160 d) (i.e., to match the age at which a VEH-treated male B6-D/+ experience ˜20 TCs) (FIG. 1B).
(§5) RNA sequencing: Hippocampal tissues from 21 mice were obtained according to a sampling strategy that compared (1) untreated (VEH only) and treated B6-D/D (n=3) with age-matched B6-+/+ controls (n=3 per group), (2) untreated (VEH only) male B6-D/+ mice that had experienced ˜20 TCs (n=3 per group) with age-matched B6-+/+ controls (n=3 per group), and (3) male B6-D/+ mice that were treated with CND for an extended period (n=3 per group). Brains of treated and untreated mice were dissected to yield tissue samples from the hippocampus. Bulk tissue was stored in RNALater (Qiagen, Valencia, CA) at −80 degrees centigrade. The technique for analyzing hippocampal gene expression was performed. Briefly, RNA was isolated from hippocampal tissue, and initial QC was performed. Libraries were constructed using a stranded mRNA-Seq Kit, and average fragment size was assessed. After concentrations were determined with an adaptor-specific qPCR kit, equimolar samples were pooled and clustered for sequencing on a Novaseq instrument (Illumina). Sample data were demultiplexed, trimmed, and quality filtered, and Fastq files were splice-aligned against the […] reference genome using STAR aligner version 2.5.2b. Gene expression counts were obtained using htseq-count version 0.6.1. Both splice alignment and counting were performed with Ensembl Annotation of the NCBI reference genome, and raw counts were analyzed with edgeR version 3.16.5.
(§6) Data and pathway analysis: Results of statistical summaries were generally expressed as mean±SD. Kaplan-Meier survival curves were used to test for differences in survival. […] A ‘perturbation signature’ approach was used to identify genome-wide differences in transcript abundance between transgenic mice (i.e., D/+, D/D, or +/+) that were untreated (VEH) or treated with CND. Differential expression analysis was performed. Briefly, the exactTest function was utilized in edgeR, and gene expression counts were first normalized using the calcNormFactors function. DEG analysis was performed on treatment versus control groups at two different ages using three biological replicates per group, which has been shown in power analyses to be sufficient to yield a true positive rate greater than 80% under the conditions used here. Multidimensional scaling (MDS) plots were constructed using the ‘plotMDS’ function in edgeR, which plots samples on a 2D scatterplot so that distances on the plot approximate the typical log 2 fold changes between samples. […] Rather than focusing on any single gene, bioinformatic analyses of our RNAseq data identified the most statistically significant biological pathways that were enriched given the set of DEGs in each experiment.

[5] = tested on: B6-D/D (Scn8a-N1768D) juvenile mice; experiment: Survival and seizure frequency, B6-D/D juvenile mice; format: in vivo, mouse; conditions: for #TCs / #TCs/day (Life) / #TCs/day (PostTC) / #gaps / Age at Onset / Days with TCs / gap days / mean gap length / Age at Death: Treated; for Age at Death: daily s.c. injection
From the text: as §1, §2, §3
(§7) Survival and seizure frequency studies: B6-D/D mice were injected with CND (n=10) or VEH (n=10) at 15 days of age (P15) and followed to monitor TCs by 24/7 video recording until death (FIG. 1B). A separate set of 10 B6-D/D mice was administered a daily s.c. injection of 25 mg/kg/day phenytoin (PHT) suspension or VEH (US Pharmacopeia, Sigma-Aldrich). Oral administration of CND or VEH was initiated at the time of seizure onset (range P75-P85) for adult B6-D/+ females (N=10) and males (N=10) (FIG. 1B). Mice were monitored for seizures by 24/7 video recording until the time of death.

[6] = tested on: B6-D/+ (Scn8a-N1768D) adult mice; experiment: Survival and seizure frequency, adult B6-D/+ mice followed for the entire lifespan; format: in vivo, mouse; set-up: reduction in post-onset seizure frequency: concentration or dose not given beside the values; conditions: for observed standard effect size, Kaplan-Meier survival: treated versus untreated
From the text: as §1, §2, §3
as §7, with “Oral administration of CND or VEH was initiated at the time of seizure onset (range P75-P85) for adult B6-D/+ females (N=10) and males (N=10) (FIG. 1B).” left out

[7] = tested on: hippocampal gene expression; experiment: RNAseq and pathway analysis of hippocampal tissue, B6-D/D juveniles; format: in vivo, mouse
Protocol: as §4, §5, §6

[8] = B6-D/D juveniles, listed as CDN
[9] = CND-treated B6-D/D, FDR-adjusted P-value <0.05
[10] = treated juveniles, FDR cutoff 0.25

## C=C(C)[C@@H]1CCC(C)=C[C@H]1c1c(O)cc(CCCCC)cc1O [CBD]
[1]
  standard effect size, survival: 0.50
[2]
  standard effect size, survival: 0.35

## CCOc1nc2cccc(C(=O)O)c2n1Cc1ccc(-c2ccccc2-c2nnn[nH]2)cc1 [CND, candesartan]
[3]; C3H Females (D/D)
  #Days survived postTC: 68.9 days
  #TCs: 30.1 TCs
  #TCs/day (PostTC): 0.51 TCs/day
  #gaps (av): 7.5
  Age at Death: 117.4 ± 28.0 days and 117.4 days
  Age at Onset: 48.5 days
  gap days: 44.0 days
  mean gap length: 5.8 days
[3]; C3H Males (D/D)
  #Days survived postTC: 68.9 days
  #TCs: 37.4 TCs
  #TCs/day (PostTC): 0.57 TCs/day
  #gaps (av): 9.8
  Age at Death: 117.1 ± 20.4 days and 117.1 days
  Age at Onset: 48.1 ± 5.1 days and 48.1 days
  gap days: 44.4 days
  mean gap length: 4.7 days
[3]; C3H-D/D females
  increase in survival, treated versus untreated: 47.5%
  reduction in post-onset seizure frequency: 78.4%
  observed standard effect size, Kaplan-Meier survival: 0.83
[3]; C3H-D/D males
  increase in survival, treated versus untreated: 49.2%
  reduction in post-onset seizure frequency: 48.0%
  observed standard effect size, Kaplan-Meier survival: 0.79
[4]; B6-D/+ Adult males
  TREATED z-score, upstream regulator ERBB2: −2.00
  TREATED z-score, upstream regulator NUPR1: −2.00
  TREATED z-score, upstream regulator PTGS2: -2.8
[4]; CND-treated B6-D/+ adult males
  number of canonical pathways predicted to be activated: 11
  number of canonical pathways predicted to be deactivated: 3
  number of enriched canonical pathways: 14
[4]; CND-treated B6-D/+ males
  number of DEGs: 86
  number of down-regulated DEGs: 10
  number of up-regulated DEGs: 76
[5]; B6-D/D
  days surviving longer than untreated: 6.3 days
[5]; B6-D/D Juveniles
  reduction in seizure frequency: 45.8%
[5]; B6-D/D juveniles
  #TCs: 119.0 TCs
  #TCs/day (Life): 0.09 TCs/day
  #TCs/day (PostTC): 15.4±10.3 TCs/day
  #gaps: 0.9
  Age at Onset: 21.4
  Days with TCs: 7.2 days
  gap days: 4.3 days
  mean gap length: 3.4
  Age at Death: 31.8 ± 2.7 days
[5]; [8]
  Age at Death: 31.8 days
  #TCs/day (PostTC): 15.4 TCs/day
[5]; B6-D/D juveniles, treated versus VEH
  increase in survival of juveniles: 27%
[5]; B6-D/D juveniles, treated versus untreated (VEH only)
  observed standard effect size, Kaplan-Meier survival: 0.79
[6]; B6-D/+ females
  increase in survival, treated versus untreated: 34.7%
  reduction in post-onset seizure frequency: 88.9%
  observed standard effect size, Kaplan-Meier survival: 0.59
[6]; B6-D/+ males
  increase in survival, treated versus untreated: 48.9%
  mean days surviving longer than untreated: 44.5 days
  reduction in post-onset seizure frequency: 56.5% and 59.1%
  observed standard effect size, Kaplan-Meier survival: 0.69
[6]; B6 Females (D/+), Treated
  #Days survived postTC: 76.4 days
  #TCs: 14.3 TCs
  #TCs/day (PostTC): 0.24 TCs/day
  Age at Onset: 91.2 days
  gap days: 34.0 days
  mean gap length: 8.3 days
[6]; B6 Females (D/+), Treated, oral from seizure onset
  Age at Death: 167.6 ± 19.1 days and 167.6 days
[6]; B6 Females (D/+), Treated, gap = seizure-free period of 3 days or more
  #gaps (av): 4.0
[6]; B6 Males (D/+), Treated Early
  #Days survived postTC: 16.8 days
  #TCs: 18.9 TCs
  #TCs/day (PostTC): 2.4 TCs/day
  #gaps (av): 2.6
  Age at Death: 121.6 days
  Age at Onset: 99.2 days
  gap days: 15.0 days
  mean gap length: 6.7 days
[6]; B6 Males (D/+), Treated Late
  #Days survived postTC: 52.7 days
  #TCs: 43.6 TCs
  #TCs/day (PostTC): 1.0 TCs/day
  #gaps (av): 4.0
  Age at Onset: 81.3 days
  gap days: 37.8 days
  mean gap length: 12.4 days
[6]; B6 Males (D/+), Treated Late (oral from seizure onset)
  Age at Death: 135.8 ± 28.4 days and 135.8 days
[7]; B6-D/D Juveniles
  TREATED z-score, upstream regulator ACKR2: −2.00
  TREATED z-score, upstream regulator IL1B: 1.76
  TREATED z-score, upstream regulator PTGER4: −2.43
  TREATED z-score, upstream regulator SIRT1: −2.83
  TREATED z-score, upstream regulator TGFB1: 0.42
  TREATED z-score, upstream regulator TNF: 1.32
  TREATED z-score, upstream regulator lipopolysaccharide: 3.19
[7]; [9]
  number of down-regulated DEGs: 25
  number of up-regulated DEGs: 50
[7]; [10]
  z-score, EIF2 Signaling pathway: 3.2
  z-score, Granzyme A Signaling pathway: −3.4
  z-score, Mitochondrial Dysfunction pathway: −3.8
  z-score, Oxidative Phosphorylation pathway: 5.0
[7]; treated juveniles, FDR≤0.25, 95% CI=3.5-979
  odds ratio, enhancement of ETC gene activation in treated versus untreated: 23 fold

## O=C1NC(=O)C(c2ccccc2)(c2ccccc2)N1 [PHT, phenytoin]
[5]; B6-D/D Juveniles
  survival of juveniles (in words): minor increase in survival that did not reach statistical significance
[5]; B6-D/D juveniles
  #TCs: 55.9 TCs
  #TCs/day (Life): 1.9 TCs/day
  #TCs/day (PostTC): 10.2±7.1 TCs/day and 10.2 TCs/day
  #gaps: 1.2
  Age at Onset: 22.2
  Days with TCs: 6.8 days
  gap days: 5.2 days
  mean gap length: 3.5
  Age at Death: 30.1 ± 5.1 days and 30.1 days
